From the NIST ThermoML archive (doi:10.1021/acs.jced.7b00866)
Numbers after ± are expanded uncertainties.

Conditions: Liquid, Capillary tube (Ostwald / Ubbelohde) method

CCCCCCCCCCCC [dodecane]
viscosity (298.2 K, 6020 kPa): 1.461 ± 0.026 mPa·s | viscosity (298.2 K, 8050 kPa): 1.497 ± 0.032 mPa·s | viscosity (298.2 K, 10020 kPa): 1.533 ± 0.034 mPa·s | viscosity (303.3 K, 10020 kPa): 1.394 ± 0.03 mPa·s | viscosity (303.4 K, 8050 kPa): 1.365 ± 0.03 mPa·s | viscosity (304.9 K, 6020 kPa): 1.348 ± 0.028 mPa·s | viscosity (313.3 K, 10020 kPa): 1.184 ± 0.025 mPa·s | viscosity (313.4 K, 8000 kPa): 1.162 ± 0.025 mPa·s | viscosity (314.5 K, 5990 kPa): 1.135 ± 0.025 mPa·s | viscosity (323.1 K, 8010 kPa): 1.007 ± 0.022 mPa·s | viscosity (323.4 K, 6050 kPa): 0.9748 ± 0.025 mPa·s | viscosity (323.4 K, 10000 kPa): 1.021 ± 0.023 mPa·s | viscosity (333.3 K, 8030 kPa): 0.8787 ± 0.021 mPa·s | viscosity (333.4 K, 10000 kPa): 0.8918 ± 0.022 mPa·s | viscosity (334.1 K, 6010 kPa): 0.8555 ± 0.023 mPa·s | viscosity (343.2 K, 8070 kPa): 0.7787 ± 0.02 mPa·s | viscosity (343.3 K, 5990 kPa): 0.7562 ± 0.02 mPa·s | viscosity (343.3 K, 10010 kPa): 0.79 ± 0.02 mPa·s | viscosity (353.4 K, 6080 kPa): 0.6746 ± 0.021 mPa·s | viscosity (353.4 K, 9980 kPa): 0.703 ± 0.019 mPa·s | viscosity (353.6 K, 8020 kPa): 0.6919 ± 0.02 mPa·s | viscosity (363.3 K, 10050 kPa): 0.6332 ± 0.019 mPa·s | viscosity (363.7 K, 8020 kPa): 0.6209 ± 0.019 mPa·s | viscosity (364 K, 6040 kPa): 0.6028 ± 0.019 mPa·s | viscosity (373.1 K, 10070 kPa): 0.5743 ± 0.019 mPa·s | viscosity (373.9 K, 8020 kPa): 0.5622 ± 0.019 mPa·s | viscosity (374 K, 6000 kPa): 0.5462 ± 0.019 mPa·s | viscosity (383 K, 6010 kPa): 0.5011 ± 0.019 mPa·s | viscosity (383.2 K, 10000 kPa): 0.523 ± 0.019 mPa·s | viscosity (383.4 K, 8050 kPa): 0.5137 ± 0.019 mPa·s | viscosity (393 K, 10020 kPa): 0.4798 ± 0.018 mPa·s | viscosity (393.1 K, 6080 kPa): 0.4584 ± 0.019 mPa·s | viscosity (393.6 K, 8030 kPa): 0.4694 ± 0.018 mPa·s | viscosity (403 K, 6040 kPa): 0.4213 ± 0.018 mPa·s | viscosity (403.1 K, 10040 kPa): 0.4407 ± 0.018 mPa·s | viscosity (404.1 K, 8020 kPa): 0.4304 ± 0.018 mPa·s | viscosity (412.9 K, 10010 kPa): 0.4076 ± 0.018 mPa·s | viscosity (413.2 K, 6080 kPa): 0.3885 ± 0.018 mPa·s | viscosity (413.7 K, 7990 kPa): 0.3987 ± 0.018 mPa·s | viscosity (423 K, 6080 kPa): 0.3581 ± 0.018 mPa·s | viscosity (423.4 K, 10000 kPa): 0.3765 ± 0.018 mPa·s | viscosity (423.9 K, 8050 kPa): 0.3686 ± 0.018 mPa·s | viscosity (432.9 K, 10020 kPa): 0.3504 ± 0.018 mPa·s | viscosity (433.2 K, 6010 kPa): 0.3334 ± 0.018 mPa·s | viscosity (433.3 K, 8000 kPa): 0.3405 ± 0.018 mPa·s | viscosity (443.2 K, 10050 kPa): 0.3257 ± 0.018 mPa·s | viscosity (443.5 K, 6020 kPa): 0.3092 ± 0.018 mPa·s | viscosity (443.5 K, 8010 kPa): 0.3152 ± 0.018 mPa·s | viscosity (453.3 K, 6020 kPa): 0.2855 ± 0.018 mPa·s | viscosity (453.3 K, 9950 kPa): 0.3036 ± 0.018 mPa·s | viscosity (454 K, 8040 kPa): 0.2936 ± 0.018 mPa·s | viscosity (463.3 K, 10010 kPa): 0.2839 ± 0.018 mPa·s | viscosity (463.4 K, 6040 kPa): 0.2664 ± 0.018 mPa·s | viscosity (464.1 K, 8020 kPa): 0.2738 ± 0.018 mPa·s | viscosity (473.3 K, 10050 kPa): 0.2657 ± 0.018 mPa·s | viscosity (473.4 K, 6040 kPa): 0.251 ± 0.018 mPa·s | viscosity (473.5 K, 8010 kPa): 0.2525 ± 0.018 mPa·s | viscosity (483.4 K, 6050 kPa): 0.2305 ± 0.018 mPa·s | viscosity (483.4 K, 8080 kPa): 0.2405 ± 0.018 mPa·s | viscosity (483.4 K, 10000 kPa): 0.2489 ± 0.018 mPa·s | viscosity (493.2 K, 10050 kPa): 0.2338 ± 0.018 mPa·s | viscosity (493.4 K, 6040 kPa): 0.216 ± 0.018 mPa·s | viscosity (493.4 K, 8010 kPa): 0.2247 ± 0.018 mPa·s | viscosity (502.7 K, 7960 kPa): 0.2075 ± 0.018 mPa·s | viscosity (503.2 K, 10010 kPa): 0.2197 ± 0.018 mPa·s | viscosity (503.4 K, 6080 kPa): 0.2005 ± 0.018 mPa·s | viscosity (513 K, 8040 kPa): 0.1945 ± 0.018 mPa·s | viscosity (513 K, 10000 kPa): 0.207 ± 0.018 mPa·s | viscosity (514.2 K, 6050 kPa): 0.186 ± 0.018 mPa·s | viscosity (523 K, 8000 kPa): 0.1822 ± 0.018 mPa·s | viscosity (523.7 K, 5970 kPa): 0.1737 ± 0.018 mPa·s | viscosity (523.7 K, 10040 kPa): 0.1949 ± 0.018 mPa·s | viscosity (533.3 K, 8040 kPa): 0.1736 ± 0.018 mPa·s | viscosity (533.5 K, 6040 kPa): 0.1638 ± 0.018 mPa·s | viscosity (533.5 K, 10070 kPa): 0.1825 ± 0.018 mPa·s | viscosity (542.9 K, 6010 kPa): 0.1526 ± 0.018 mPa·s | viscosity (542.9 K, 8060 kPa): 0.1603 ± 0.018 mPa·s | viscosity (542.9 K, 9950 kPa): 0.1682 ± 0.018 mPa·s | viscosity (552.9 K, 6070 kPa): 0.1419 ± 0.018 mPa·s | viscosity (552.9 K, 10020 kPa): 0.158 ± 0.018 mPa·s | viscosity (553.2 K, 8010 kPa): 0.1506 ± 0.018 mPa·s | viscosity (563 K, 6050 kPa): 0.1337 ± 0.018 mPa·s | viscosity (563 K, 8020 kPa): 0.1414 ± 0.018 mPa·s | viscosity (563 K, 10020 kPa): 0.1509 ± 0.018 mPa·s | viscosity (573 K, 6010 kPa): 0.124 ± 0.018 mPa·s | viscosity (573 K, 8020 kPa): 0.1347 ± 0.018 mPa·s | viscosity (573 K, 10040 kPa): 0.1437 ± 0.018 mPa·s | viscosity (582.8 K, 6000 kPa): 0.1159 ± 0.018 mPa·s | viscosity (582.8 K, 10010 kPa): 0.132 ± 0.018 mPa·s | viscosity (582.9 K, 7960 kPa): 0.1265 ± 0.018 mPa·s | viscosity (592.9 K, 8070 kPa): 0.12 ± 0.018 mPa·s | viscosity (593 K, 6020 kPa): 0.1104 ± 0.018 mPa·s | viscosity (593 K, 10000 kPa): 0.1263 ± 0.018 mPa·s | viscosity (602.9 K, 8020 kPa): 0.1128 ± 0.018 mPa·s | viscosity (603.1 K, 6010 kPa): 0.1048 ± 0.018 mPa·s | viscosity (603.1 K, 10010 kPa): 0.1186 ± 0.018 mPa·s | viscosity (612.9 K, 8020 kPa): 0.1058 ± 0.018 mPa·s | viscosity (613.1 K, 6040 kPa): 0.0969 ± 0.018 mPa·s | viscosity (613.1 K, 10010 kPa): 0.1116 ± 0.018 mPa·s | viscosity (623 K, 7990 kPa): 0.1003 ± 0.018 mPa·s | viscosity (623.2 K, 6050 kPa): 0.0908 ± 0.018 mPa·s | viscosity (623.2 K, 10050 kPa): 0.1056 ± 0.018 mPa·s | viscosity (632.8 K, 8040 kPa): 0.0933 ± 0.018 mPa·s | viscosity (633.5 K, 6020 kPa): 0.0848 ± 0.018 mPa·s | viscosity (633.5 K, 10010 kPa): 0.0992 ± 0.018 mPa·s | viscosity (643 K, 8050 kPa): 0.0878 ± 0.018 mPa·s | viscosity (643.4 K, 6020 kPa): 0.0789 ± 0.018 mPa·s | viscosity (643.4 K, 10010 kPa): 0.0943 ± 0.018 mPa·s | viscosity (652.9 K, 8020 kPa): 0.0824 ± 0.018 mPa·s | viscosity (653.4 K, 6070 kPa): 0.0733 ± 0.018 mPa·s | viscosity (653.4 K, 10040 kPa): 0.087 ± 0.018 mPa·s | viscosity (663.1 K, 8010 kPa): 0.0775 ± 0.018 mPa·s | viscosity (663.2 K, 6010 kPa): 0.0682 ± 0.018 mPa·s | viscosity (663.2 K, 10050 kPa): 0.0823 ± 0.018 mPa·s | viscosity (672.9 K, 8010 kPa): 0.0727 ± 0.018 mPa·s | viscosity (673.5 K, 6040 kPa): 0.0635 ± 0.018 mPa·s | viscosity (673.5 K, 9980 kPa): 0.0785 ± 0.018 mPa·s | viscosity (683.2 K, 8050 kPa): 0.0685 ± 0.018 mPa·s | viscosity (683.2 K, 10040 kPa): 0.0746 ± 0.018 mPa·s | viscosity (683.3 K, 6010 kPa): 0.059 ± 0.018 mPa·s | viscosity (693.2 K, 6010 kPa): 0.0548 ± 0.018 mPa·s | viscosity (693.2 K, 8020 kPa): 0.0643 ± 0.018 mPa·s | viscosity (693.2 K, 10010 kPa): 0.0712 ± 0.018 mPa·s
